Assay results reported in US9999623B2, “Use of substituted 2,3-dihydroimidazo[1,2-c]quinazolines for treating lymphomas” (BAYER PHARMA AKTIENGESELLSCHAFT, priority 2013, dated 2018).
Where a name gives a salt, the structure may show the parent alone.

What was measured:
DLBCL cell lines = test: 72-h CellTiter-Glo anti-proliferative assay; type: cell-based, human; details: for anti-proliferative activity profile across DLBCL cell lines: panel of 8 DLBCL cell lines; for IC50: Homo sapiens
Method: Briefly, cells were plated at 250-2000 cells/well of 384-well plates (based on cell lines) in 20 μL of growth medium. For each cell line assayed, cells were plated into a separate plate for determination of luminescence at the t=0 hours and t=72 hour time points. […] Dose plates for t=72 hour time points were treated with compounds diluted into growth medium in a final volume of 30 μL. Cells were then incubated for 72 hours at 37° C. Luminescence values for the t=72 hour samples were determined by adding 30 μL of Promega CellTiter-Glo solution, placing the cells on a shaker for 10 minutes at room temperature, and then reading the luminescence using a Victor luminometer. For data processing, t=0 values are subtracted from those determined for the t=72 hour time points, for both the treated and untreated samples. Percent differences in luminescence between drug treated and controls are used to determine percent inhibition of growth.

[1] = tested on: signaling pathways in OCI-Ly3 and HBL-1 cells; test: Western blot modulation of intracellular signaling pathways; type: cell-based, human; details: 24 h post treatment
Method: Modulation of intracellular pathways were assessed by Western blots at 24 h post treatment with indicated compounds either as single agent or in combination. Antibodies used in this study are AKT (#4685, Cell Signaling), p-AKT (04060, Cell Signaling), ERK (#4695, Cell Signaling), p-ERK (#4376, Cell Signaling), BTK (#3533, Cell Signaling), p-BTK (05082, Cell Signaling), IκBα (#4812, Cell Signaling), p-IκBα (#AF4809, R&D), p-IKKα/β (02078, Cell Signaling), IKKβ (02370, Cell Signaling).

follicular NHL [2] = test: Initial clinical efficacy in NHL patients (phase I dose-escalation), follicular NHL; type: in vivo, human; details: patients with PR/patients; PR at end of cycle 2 at 0.8 mg/kg, one case end of cycle 4 at 0.6 mg/kg
Method: A phase I dose-escalation study (Patnaik et al, ASH 2012) established the maximum tolerated dose of COMPOUND OF FORMULA I (0.8 mg/kg) and reported promising activity (6/6 PR) in follicular lymphoma. In the present study we further investigated the activity and safety of COMPOUND OF FORMULA I in patients with indolent or aggressive lymphoma subtypes that have progressed after standard therapy.

DLBCL [3] = test: Initial clinical efficacy in NHL patients (phase I dose-escalation), DLBCL; type: in vivo, human; details: DLBCL patient with SD
Half-life in mice = details: mouse, in vivo, iv
[4] = tested on: indolent or aggressive lymphoma; test: Phase II study, single agent, response by lymphoma subtype; type: in vivo, human; details: for Best response CR/CRu, number of patients / Best response PD, number of patients / Best response PR, number of patients / Best response SD, number of patients: staged patients; for complete RR / overall response rate (RR): interim analysis
Method: In this Phase II study, patients with histologically confirmed indolent or aggressive lymphoma relapsed or refractory to ≥2 prior lines of treatment were eligible. Patients received COMPOUND OF FORMULA I at a dose of 0.8 mg/kg as a 1 hour infusion on days 1, 8 and 15 of a 28-day cycle. Patients continued on therapy until disease progression or unacceptable toxicity. Responses were assessed every two cycles according to the response criteria for lymphoma (Cheson et al, JCO 17:1244, 1999) or the guidelines for diagnosis and treatment of chronic lymphocytic leukemia (CLL; Hallek et al., Blood 111:5446-56, 2008).
As of May 31, 2013, a total of 61 lymphoma patients (27 indolent and 34 aggressive) were enrolled and 56 started study treatment. Patients were similarly distributed among indolent and aggressive cohorts with respect to gender (52% female), median age (68 yr, range 22-90) and ethnicity (76% Caucasian) and were heavily pretreated (median number of prior therapies: 3; prior Rituximab: 84%; prior ASCT: 20%). Other characteristics included advanced stage III-IV in 85% and B symptoms in 17%. The following entities were represented: follicular (FL; n=13); CLL (n=11); marginal zone (MZL; n=3; none re-staged); diffuse large B-cell (DLBCL; n=17); mantle cell (MCL; n=7); transformed (n=5); and peripheral T-cell (PTCL; n=4). At the time of analysis patients had received between 1 and 5 cycles of treatment. Objective responses were seen across histologic subtypes (Table 1). At the time of this interim analysis, the overall response rate (RR) and complete RR were 44% and 22% in FL, 83% and 17% in MCL, and 50% and 0% in PTCL, respectively.

[5] = Phase II study, single agent, safety (adverse events); type: in vivo, human
Method: Patients received COMPOUND OF FORMULA I at a dose of 0.8 mg/kg as a 1 hour infusion on days 1, 8 and 15 of a 28-day cycle. Patients continued on therapy until disease progression or unacceptable toxicity.

follicular NHL [6] = details: phase I dose-escalation study (Patnaik et al, ASH 2012); cited from earlier work
[7] = phase I dose-escalation study (Patnaik et al, ASH 2012); cited from earlier work
DLBCL [8] = details: patients with PD/patients; cited from earlier work
TMD-8 tumor cells = details: 20 mg/kg once daily po; day 29
Method: Untreated female 5-6 week old CB17.Scid mice are inoculated with 10×10^6 TMD-8 tumor cells (suspended in 50% Matrigel and 50% Medium) subcutaneously into the flank. Animals are randomized to treatment groups when tumors reach a tumor area of 30-35 mm^2. Treatment is conducted as described in FIG. 5 legend. Tumor area and animal body are recorded three times per week.
Tumor growth was monitored by determination of the tumor area using caliper measurement 3 times weekly. QD, once daily; SD, standard deviation of the mean; TGI, relative tumor growth inhibition vs control (%, tumor area at the end of the study on day 29)

O=C1Nc2nc(-c3c(O)cccc3OCC3CC3)cc([C@@H]3CCCNC3)c2CO1 [BAY Compound B]
anti-proliferative activity profile across DLBCL cell lines (DLBCL cell lines): more active in ABC-DLBCL compared with GCB-DLBCL cell lines | feedback activation of p-IKKα/β ([1]; both HBL-1 and OCI-Ly3 cells): Activation of p-IKKα/β

COc1c(OCCCN2CCOCC2)ccc2c1N=C(NC(=O)c1cnc(N)nc1)N1CCN=C21 [COMPOUND A, 2-amino-N-[7-methoxy-8-(3-morpholin-4-ylpropoxy)-2,3-dihydroimidazo[1,2-c]quinazolin-5-yl]pyrimidine-5-carboxamide dihydrochloride]
PR (partial response) in follicular NHL (follicular NHL [2]): 6/6 | tumor reduction (DLBCL [3]): 39% | half-life (Half-life in mice): ~1 h

COc1c(OCCCN2CCOCC2)ccc2c1N=C(NC(=O)c1cnc(N)nc1)N1CCN=C21 [COMPOUND OF FORMULA I, 2-amino-N-[7-methoxy-8-(3-morpholin-4-ylpropoxy)-2,3-dihydroimidazo[1,2-c]quinazolin-5-yl]pyrimidine-5-carboxamide]
Best response CR/CRu, number of patients ([4]; CLL (n = 9)): 0 | Best response PD, number of patients ([4]; CLL (n = 9)): 1 | Best response PR, number of patients ([4]; CLL (n = 9)): 4 | Best response SD, number of patients ([4]; CLL (n = 9)): 4 | Best response CR/CRu, number of patients ([4]; DLBCL (n = 17)): 0 | Best response PD, number of patients ([4]; DLBCL (n = 17)): 8 | Best response PR, number of patients ([4]; DLBCL (n = 17)): 2 | Best response SD, number of patients ([4]; DLBCL (n = 17)): 7 | Best response CR/CRu, number of patients ([4]; FL (n = 9)): 2 | Best response PD, number of patients ([4]; FL (n = 9)): 0 | Best response PR, number of patients ([4]; FL (n = 9)): 2 | Best response SD, number of patients ([4]; FL (n = 9)): 5 | complete RR ([4]; FL): 22% | overall response rate (RR) ([4]; FL, 0.8 mg/kg days 1, 8, 15 of 28-day cycle): 44% | Best response CR/CRu, number of patients ([4]; MCL (n = 6)): 1 | Best response PD, number of patients ([4]; MCL (n = 6)): 1 | Best response PR, number of patients ([4]; MCL (n = 6)): 4 | Best response SD, number of patients ([4]; MCL (n = 6)): 0 | complete RR ([4]; MCL): 17% | overall response rate (RR) ([4]; MCL): 83% | Best response CR/CRu, number of patients ([4]; PTCL (n = 4)): 0 | Best response PD, number of patients ([4]; PTCL (n = 4)): 2 | Best response PR, number of patients ([4]; PTCL (n = 4)): 2 | Best response SD, number of patients ([4]; PTCL (n = 4)): 0 | complete RR ([4]; PTCL): 0% | overall response rate (RR) ([4]; PTCL): 50% | Best response CR/CRu, number of patients ([4]; Transformed (n = 5)): 0 | Best response PD, number of patients ([4]; Transformed (n = 5)): 2 | Best response PR, number of patients ([4]; Transformed (n = 5)): 1 | Best response SD, number of patients ([4]; Transformed (n = 5)): 2 | clinical activity ([4]; single agent, 1st line, 2nd line, relapsed, refractory lymphoma): clinically active as a single agent | deaths ([5]; 1 progressive disease, 1 acute respiratory insufficiency, 1 Cryptococcal meningitis, 1 sepsis after salvage chemotherapy): Four | toxicity profile ([5]; 1st line, 2nd line, relapsed, refractory lymphoma): acceptable toxicity profile | cases of interstitial pneumonitis ([5]; both resolved following corticosteroid administration): two | Hyperglycemia of any grade ([5]; in vivo): 47% | Withdrawal of study drug due to AEs ([5]; in vivo): 10 patients | colitis ([5]; in vivo): No case of colitis was reported | grade 4 hyperglycemia ([5]; in vivo): no grade 4 hyperglycemia was observed | grade 4 hypertension ([5]; in vivo): no grade 4 hypertension was reported | patients who required a dose reduction ([5]; in vivo): 4 patients | patients who required antihypertensive treatment ([5]; in vivo): Eight | patients who required insulin therapy ([5]; in vivo): Four | Diarrhea of any grade ([5]; of cases): 25% | Grade 3/4 AE diarrhea ([5]; of patients): 5% | Grade 3/4 AE fatigue ([5]; of patients): 5% | Grade 3/4 AE hyperglycemia ([5]; of patients): 13% | Grade 3/4 AE hypertension ([5]; of patients): 31% | Grade 3/4 AE neutropenia ([5]; of patients): 16% | Grade 3 adverse events (AE) ([5]; of patients): 49% | Hypertension of any grade ([5]; of patients): 46% | Withdrawal of study drug due to AEs ([5]; of patients): 16% | grade 4 AE (all neutropenia) ([5]; of patients): 15% | PR in follicular lymphoma (follicular NHL [6]): 6/6 | maximum tolerated dose [7]: 0.8 mg/kg

CC[C@H](Nc1ncnc2[nH]cnc12)c1nc2cccc(F)c2c(=O)n1-c1ccccc1 [GS-1101]
decreased activity with respect to IC50 values (DLBCL cell lines; any mutations downstream of BCR): > 100 fold | anti-proliferative activity profile across DLBCL cell lines (DLBCL cell lines): active only in BCR-mutant cell lines without downstream mutations | feedback activation of p-ERK ([1]; HBL-1 cells): Activation of p-ERK | PD (progression of disease) in DLBCL patients (DLBCL [8]): 9/9

C=CC(=O)N1CCC[C@@H](n2nc(-c3ccc(Oc4ccccc4)cc3)c3c(N)ncnc32)C1 [ibrutinib]
IC50 (DLBCL cell lines; BCR-mutant cell lines even in the presence of activating NFκB pathway): < 30 nM | IC50 (DLBCL cell lines; cell lines without BCR-activating mutations (or complete inactivity)): > 1000 nM | TGI (rel TA) (TMD-8 tumor cells): 70% | feedback activation of p-ERK ([1]; both HBL-1 and OCI-Ly3 cells): Activation of p-ERK
